Patent US20240327415A1, “Multicomponent Complexes, Including Salts, Crystalline Forms, and Hydrates and Solvates of ENT1 Inhibitors” (iTeos Belgium SA, priority 2023, published 2024)
Structures can show the parent of a compound that is named as a salt.

Legend:
Assay type in all cases: physicochemical
[1] = thermodynamic solubility in 8 aqueous media (Example 19); settings: for solubility in aqueous media: 24 hours at 37° C.
Method: UPLC System—UPLC: ThermoFisher Vanquish, Detector 1: UV detector set at 266 nm
UPLC Conditions— • Auto sampler temp.: RT • Column: Agilent Eclipse Plus C18 HD (50×2.1 mm; 1.8 μm) • Column temp: 40° C. • Gradient: Mobile phase A: 10 mM ammonium acetate in water • Mobile phase B: Acetonitrile • Flow: 0.6 mL/min • Gradient:
• Concentration: ca. 1.0 mg/mL • Solvent: ACN/water 50:50 • Injection volume: 1 μl • Retention time: 2.9 min
Example 19-Solubility of Crystalline Form 2 Compound 1 di(hydrogen sulfate) trihydrate: The thermodynamic solubility of crystalline Form 2 Compound 1 di(hydrogen sulfate) trihydrate was determined in 8 aqueous media (0.1M HCl, Phthalate buffer pH 3, acetate buffer pH 4.2, phosphate buffer pH 7, phosphate buffer pH 7.4, alkaline borate buffer pH 9.0, purified water EP/USP and phosphate water pH 12). Buffer solutions were prepared according to the United States Pharmacopeia USP 43 with modified buffer strength. Suspensions were prepared by addition of a single aliquot of the aqueous medium to the crystalline Form 2 Compound 1 di(hydrogen sulfate) trihydrate. The pH was titrated to the targeted pH with 1M NaOH. After incubation for 24 hours at 37° C., the pH was measured, and the mother liquors were filtered and analyzed by UPLC to determine the concentration of the free base. The residual solids after the solubility determination were ambient- and vacuum dried and analyzed by HT-XRPD.

[2] = Variable Temperature X-Ray Powder Diffraction (VT-XRPD); parameters: key: M4: Crystalline Form 4 mono(hydrogen sulfate); M8: Crystalline Form 8 mono(hydrogen sulfate); Amorphous mono(hydrogen sulfate)
Method: (§1) In the examples below, VT-XRPD analysis was carried out on a Philips X'Pert Pro Multipurpose diffractometer equipped with a temperature chamber. The samples were scanned between 4 and 36° 2θ using Cu K radiation (α1 λ=1.54060 Å; α2=1.54443 Å; β=1.39225 Å; α1: α2 ratio=0.5; most, if not all, B radiation is removed from the beam using an X-ray mirror) running in Bragg-Brentano geometry (step size 0.008° 2θ) using 40 kV/40 mA generator settings. Measurements were carried out from ambient temperature to an upper limit of 250° C., with a final measurement taken after cooling.
as §1, with “VT-XRPD” for “In the examples below, VT-XRPD”, “Å; β2=1.39225” for “Å; β=1.39225”, “Å; α1:α2” for “Å; α1: α2”, “all, β” for “all, B”

[3] = solution stability in 1-propanol:water (80:20% v/v) at 50° C. (Example 8)
Method: Example 8-Solution Stability of Compound 1 di(hydrogen sulfate): As per Table 44, weighed amounts (mg) of Compound 1 (free base) were added to 5×1.5 mL screw cap vials. Sulfuric acid equivalents were added to each vial as solutions in volumes of 1-propanol: water (80:20% v/v) as further set forth in Table 44. Salt formation occurred in situ. The target free base concentration was about 186 mg/mL. The solutions were stirred at 50° C. for about 24 hours. […] Subsamples (50 μL) of the solutions were extracted for HPLC analysis after 2, 4, 6, and 23 hours of stirring at 50° C.

[4] = 1-propanol:water (80:20% v/v), 50° C., Acid Equiv. 1.90
[5] = 1-propanol:water (80:20% v/v), 50° C., Acid Equiv. 1.95
[6] = 1-propanol:water (80:20% v/v), 50° C., Acid Equiv. 2.00
[7] = 1-propanol:water (80:20% v/v), 50° C., Acid Equiv. 2.05
[8] = 1-propanol:water (80:20% v/v), 50° C., Acid Equiv. 2.10

CCCN1CCNCCCNC(=O)c2cc(OC)c(OC)c(c2)OCCC[C@@H](OC(=O)c2cc(OC)c(OC)c(OC)c2)CC1
solubility compared with the free base [1]: more soluble than the free base | solubility in aqueous media ([1]; high pH (12.0)): very slightly soluble | solubility in aqueous media ([1]; low pH values (<3.0)): freely soluble | solubility in aqueous media ([1]; pH 4.2): soluble | solubility in aqueous media ([1]; pH 7.0): slightly soluble

COc1cc(C(=O)O[C@@H]2CCCOc3cc(cc(OC)c3OC)C(=O)NCCCN3CCCN(CC2)CC3)cc(OC)c1OC.O=S(=O)(O)O
VT-XRPD Results ([2]; Cooling, 30° C., hold 10 min): M8 | VT-XRPD Results ([2]; Heating, 40° C., hold 60 min): M8 | VT-XRPD Results ([2]; Heating, 50° C., hold 60 min): M8 | VT-XRPD Results ([2]; Heating, 70° C., hold 60 min): M8 | VT-XRPD Results ([2]; second Heating, 50° C., hold 60 min): M8 | VT-XRPD Results ([2]; second Heating, 70° C., hold 60 min): M8 | VT-XRPD Results ([2]; second Heating, 90° C., hold 60 min): Amorphous | VT-XRPD Results ([2]; second Heating, 100° C., hold 60 min): Amorphous | VT-XRPD Results ([2]; second Heating, 110° C., hold 60 min): Amorphous

COc1cc(C(=O)O[C@@H]2CCCOc3cc(cc(OC)c3OC)C(=O)NCCCN3CCCN(CC2)CC3)cc(OC)c1OC [Compound 1 di(hydrogen sulfate)]
lowering of purity at the T23h timepoint versus earlier samples ([3]; 1-propanol:water (80:20% v/v), 50° C.): about 0.8 % area | solution purity ([3]; 1-propanol:water (80:20% v/v), 50° C., 2, 4, 6 and 23 hours): 98.7-99.7 % area | HPLC Conc. T2 h [3, 4]: 176 mg/mL | HPLC Conc. T4 h [3, 4]: 167 mg/mL | HPLC Conc. T6 h [3, 4]: 183 mg/mL | HPLC Conc. T23 h [3, 4]: 164 mg/mL | HPLC Purity T2 h [3, 4]: 99.70 % area | HPLC Purity T4 h [3, 4]: 99.67 % area | HPLC Purity T6 h [3, 4]: 99.58 % area | HPLC Purity T23 h [3, 4]: 98.94 % area | HPLC Conc. T2 h [3, 5]: 175 mg/mL | HPLC Conc. T4 h [3, 5]: 169 mg/mL | HPLC Conc. T6 h [3, 5]: 179 mg/mL | HPLC Conc. T23 h [3, 5]: 162 mg/mL | HPLC Purity T2 h [3, 5]: 99.60 % area | HPLC Purity T4 h [3, 5]: 99.61 % area | HPLC Purity T6 h [3, 5]: 99.53 % area | HPLC Purity T23 h [3, 5]: 99.00 % area | HPLC Conc. T2 h [3, 6]: 170 mg/mL | HPLC Conc. T4 h [3, 6]: 165 mg/mL | HPLC Conc. T6 h [3, 6]: 169 mg/mL | HPLC Conc. T23 h [3, 6]: 170 mg/mL | HPLC Purity T2 h [3, 6]: 99.66 % area | HPLC Purity T4 h [3, 6]: 99.58 % area | HPLC Purity T6 h [3, 6]: 99.43 % area | HPLC Purity T23 h [3, 6]: 98.78 % area | HPLC Conc. T2 h [3, 7]: 166 mg/mL | HPLC Conc. T4 h [3, 7]: 165 mg/mL | HPLC Conc. T6 h [3, 7]: 173 mg/mL | HPLC Conc. T23 h [3, 7]: 165 mg/mL | HPLC Purity T2 h [3, 7]: 99.68 % area | HPLC Purity T4 h [3, 7]: 99.52 % area | HPLC Purity T6 h [3, 7]: 99.42 % area | HPLC Purity T23 h [3, 7]: 98.85 % area | HPLC Conc. T2 h [3, 8]: 166 mg/mL | HPLC Conc. T4 h [3, 8]: 164 mg/mL | HPLC Conc. T6 h [3, 8]: 168 mg/mL | HPLC Conc. T23 h [3, 8]: 167 mg/mL | HPLC Purity T2 h [3, 8]: 99.60 % area | HPLC Purity T4 h [3, 8]: 99.62 % area | HPLC Purity T6 h [3, 8]: 99.47 % area | HPLC Purity T23 h [3, 8]: 98.89 % area | overall solution stability ([3]; 1-propanol:water solvent system at 50° C.): substantial stability | concentration of the solutions by HPLC ([3]; input free base concentration 186 mg/mL, 50° C.): 162000 to 183000 µg/mL
